This note sets out measurements from paper PMC4627230, “Identification of TAX2 peptide as a new unpredicted anti-cancer agent” (Oncotarget, 2015).

The assay concerns VEGFR2. Put plainly: VEGF-induced VEGFR2 phosphorylation. The format is cell-based, human. To be noted: HUVECs, 100 μM for 12 h, then 30 ng/mL VEGF 5 min; n = 3.

For “CEVSQLLKGDAC (disulfide) [TAX2, CD47-derived cyclic disulfide dodecapeptide …]”, the “VEGF-induced VEGFR2 phosphorylation” value is listed as “partially reverses VEGF-induced VEGFR2 phosphorylation”.
